From patent US20200002354A1, “HEXAHYDROPYRAZINOBENZ- OR -PYRIDO-OXAZEPINES CARRYING AN OXYGEN-CONTAINING SUBSTITUENT AND USE THEREOF IN THE TREATMENT OF 5-HT2C-DEPENDENT DISORDERS” (AbbVie Deutschland GmbH & Co. KG, priority 2015, published 2020)
Structures can show the parent of a compound that is named as a salt. Where two headings read alike, the source gives them in different places.

How the values were obtained:
[1] = molecular target: T1, human 5-HT2A receptor (Homo sapiens, UniProt P28223); test: Human 5-HT2A functional assay (calcium mobilisation in CHO-K1 cells, FLIPR); format: cell-based; conditions: based on agonism: EC50 5-HT2A/EC50 5-HT2C
T1 construct: expressed in transfected cells; host or cells: CHO-K1
T1 sequence (P28223 whole entry): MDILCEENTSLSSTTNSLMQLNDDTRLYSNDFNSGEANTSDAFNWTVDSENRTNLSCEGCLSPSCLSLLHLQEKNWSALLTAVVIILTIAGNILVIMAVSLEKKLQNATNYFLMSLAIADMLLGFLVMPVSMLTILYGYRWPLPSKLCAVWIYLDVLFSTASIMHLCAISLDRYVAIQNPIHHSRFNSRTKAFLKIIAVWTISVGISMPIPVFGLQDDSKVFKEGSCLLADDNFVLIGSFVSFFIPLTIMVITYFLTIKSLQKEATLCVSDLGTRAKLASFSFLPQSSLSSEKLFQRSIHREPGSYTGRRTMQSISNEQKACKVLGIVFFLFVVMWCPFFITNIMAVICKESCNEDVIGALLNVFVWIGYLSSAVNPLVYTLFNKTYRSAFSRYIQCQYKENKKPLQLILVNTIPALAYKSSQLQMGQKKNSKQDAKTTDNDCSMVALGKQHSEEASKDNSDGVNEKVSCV
Method: 2. Human 5-HT2A Functional Assay
Functional activity on the 5-HT2A receptor was determined by testing the effect of the compounds I on calcium mobilisation in CHO-K1 cells, stably transfected with human 5-HT2A receptor. Cells were seeded into sterile black 384-well plates with clear bottom at 25,000 cells/well in a volume of 25 μl and grown for 5-6 hours at 37° C., in 5% CO2 in tissue culture medium (“Ultra CHO” by LONZA), containing 1% dialysed FCS and 50 μg/ml gentamicin (Invitrogen). After this incubation, medium was replaced by a serum free version of the same tissue culture medium followed by incubation overnight at 37° C. and in 5% CO2. Cells were then loaded with a fluorescent calcium-sensitive dye in the presence of 0.07% probenecid for an hour at 37° C., according to the manufacturer's protocol (Ca5-Assay Kit, Molecular Devices), followed by an additional 60 min incubation at room temperature. Serial compound dilutions (final concentrations of 10^−10 to 10^−5M, prepared in HBSS+50 mM HEPES) were first added to the cells alone (“first addition” to assess agonism on the 5-HT2A receptor), then after 8 min, serotonin was added to the same wells at a final concentration of 3×10^−8 M (“second addition” to see potential antagonistic effect) and the maximal calcium response was determined using a FLIPR® Tetra instrument (Molecular Devices) in each of the two steps. The relative efficacy of the compounds was calculated as a percentage of the maximal effect induced by serotonin alone (defined as 100%). To determine EC50/IC50 values, concentration-response curves were fitted using a four-parameter logistic equation (IDBS Biobookml). Kb values were calculated from IC50 values, according to Cheng & Prusoff

[2] = molecular target: T2, 5-HT2C receptor (Homo sapiens, UniProt P28335); test: Human 5-HT2C functional assay (beta-arrestin2 recruitment, U2OS_HTR2C_β-Arrestin cells); format: cell-based; conditions: for EC50: Potency (EC50 5-HT2C) in functional assay, agonism, read-out: EC50 5-HT2C; for Emax: relative efficacy vs maximal effect induced by 5-HT (defined as 100%)
T2 construct: host or cells: U2OS
T2 sequence (P28335 33-458): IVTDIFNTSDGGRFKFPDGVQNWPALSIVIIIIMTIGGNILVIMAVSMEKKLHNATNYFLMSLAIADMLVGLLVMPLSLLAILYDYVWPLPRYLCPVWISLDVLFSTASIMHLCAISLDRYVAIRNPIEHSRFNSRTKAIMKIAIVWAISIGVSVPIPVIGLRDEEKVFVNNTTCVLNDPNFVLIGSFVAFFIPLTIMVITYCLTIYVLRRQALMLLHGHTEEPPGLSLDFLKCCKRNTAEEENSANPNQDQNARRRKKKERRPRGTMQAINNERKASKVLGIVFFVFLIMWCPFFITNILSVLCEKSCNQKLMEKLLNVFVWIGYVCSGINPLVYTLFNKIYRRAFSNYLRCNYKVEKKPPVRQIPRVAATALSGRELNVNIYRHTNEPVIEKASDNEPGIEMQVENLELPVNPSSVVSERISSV
T2 sequence (P32121 whole entry partner): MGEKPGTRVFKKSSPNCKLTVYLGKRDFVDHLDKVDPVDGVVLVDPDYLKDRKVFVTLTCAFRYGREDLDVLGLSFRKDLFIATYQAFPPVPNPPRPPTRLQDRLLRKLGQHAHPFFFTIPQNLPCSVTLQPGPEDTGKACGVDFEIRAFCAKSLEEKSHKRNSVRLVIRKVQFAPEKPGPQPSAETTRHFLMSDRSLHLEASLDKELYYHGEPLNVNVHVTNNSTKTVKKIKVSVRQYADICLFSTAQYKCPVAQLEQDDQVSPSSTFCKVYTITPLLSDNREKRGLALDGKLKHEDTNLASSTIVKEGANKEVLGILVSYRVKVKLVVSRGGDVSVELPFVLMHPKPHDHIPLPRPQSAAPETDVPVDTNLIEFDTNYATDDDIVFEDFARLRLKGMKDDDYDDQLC
Method: 1. Human 5-HT2C Functional Assay
The functional activity of compounds of formula I was assayed by incubation with U2OS_HTR2C_β-Arrestin cells (DiscoverX, 93-0289C3) to induce beta-arrestin2 recruitment to the 5-HT2C receptor. The agonist-induced recruitment and proximity of the receptor and beta-arrestin2 leads to complementation and formation of active β-galactosidase. The enzyme complementation results in enzyme activity, which is measured following the termination of the agonist incubation using DiscoveRx's detection reagent, which contains a chemiluminescent substrate which produces a high intensity signal. Cells were plated and a medium-change to a 1% serum containing medium was performed 24 h later. The next day, test compounds were added and incubated for 1.5 h before addition of detection reagent.
The response produced was measured and compared with the response produced by 10 [mu]M 5-HT or the maximal effect induced by 5-HT (defined as 100%) to which it was expressed as a percentage response (relative efficacy).

[3] = Metabolic stability in human liver microsomes, unbound intrinsic clearance; format: in vitro ADME; conditions: pH 7.4, unbound intrinsic clearance (human), Clint unbound = Cl int/fu mic, read-out: Cl int, mic unb. (h)
Method: Samples of the tested compounds (0.5 μM) were preincubated together with human liver microsomes (0.25 mg of microsomal protein/mL) in 0.05 M potassium phosphate buffer of pH 7.4 in microtiter plates at 37° C. for 5 minutes. The reaction was started by adding NADPH (1.0 mM). After 0, 5, 10, 15, 20 and 30 minutes, an aliquot was removed, the reaction was cooled and stopped by adding twice the amount of quench solution consisting of acetonitrile/methanol 1:1, and containing 0.2 μM carbutamide as internal standard. The samples were frozen until analyzed. The remaining concentration of undegraded test substance was determined by liquid chromatography-tandem mass spectrometry (LC-MS/MS). The half-life (t1/2) was determined from the gradient of the ratio of the signal of (test substance/internal standard)/unit time plot, allowing the calculation of the half-life of the test substance, assuming first order kinetics, from the decrease in the concentration of the compound with time. The microsomal clearance (mClint) was calculated as follows: mClint=((ln(2)/t ½)/Microsomal Protein Concentration (mg/ml))*1000, leading to the unit of uL/min/mg. The scaled clearance (mClin_scaled) was calculated as mCLint_scaled=m CLint*(Microsomal Yield (mg/kg BW))/1000000*60, leading to the units L/h/kg. The Microsomal Yield is defined by the specifics of the used microsomes. Calculations were modified from references: Di, The Society for Biomolecular Screening, 2003, 453-462; Obach, D M D, 1999 vol 27. N 11, 1350-1359.
Calculation of Unbound Intrinsic Clearance
C1int unbound=C1 int/fu mic

[4] = molecular target: T3, human 5-HT2B receptor (Homo sapiens, UniProt P41595); test: Human 5-HT2B functional assay (calcium mobilisation in CHO-FlpIn cells, FLIPR); format: cell-based; conditions: based on agonism: EC50 5-HT2B/EC50 5-HT2C
T3 construct: expressed in transfected cells; host or cells: CHO-FlpIn
T3 sequence (P41595 whole entry): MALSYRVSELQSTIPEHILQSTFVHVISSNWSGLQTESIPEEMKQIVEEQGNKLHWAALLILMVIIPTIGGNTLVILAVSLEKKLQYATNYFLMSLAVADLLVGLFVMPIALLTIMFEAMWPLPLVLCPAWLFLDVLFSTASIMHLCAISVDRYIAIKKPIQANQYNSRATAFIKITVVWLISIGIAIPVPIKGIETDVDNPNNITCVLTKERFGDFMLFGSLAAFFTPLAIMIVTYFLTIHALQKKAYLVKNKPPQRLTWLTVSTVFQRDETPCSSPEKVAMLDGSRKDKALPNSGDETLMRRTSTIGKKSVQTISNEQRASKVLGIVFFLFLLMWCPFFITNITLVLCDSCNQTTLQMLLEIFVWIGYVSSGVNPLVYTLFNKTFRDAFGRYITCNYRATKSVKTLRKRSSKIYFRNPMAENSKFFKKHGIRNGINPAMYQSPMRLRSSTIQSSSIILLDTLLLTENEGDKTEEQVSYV
Method: 3. Human 5-HT2B Functional Assay
Functional activity on the 5-HT2B receptor was determined by testing the effect of the compounds I on calcium mobilisation in CHO-FlpIn cells, stably transfected with human 5-HT2B receptor. Cells were seeded into sterile black 384-well plates with clear bottom at 30,000 cells/well in a volume of 25 μl and grown overnight at 37° C., in 5% CO2 in tissue culture medium (“CHO-S-SFM II” by Invitrogen), containing 1% dialysed FCS and 50 μg/ml gentamicin (Invitrogen). On the next morning, medium was replaced by a serum free version of the same tissue culture medium for a further incubation for 4 hours at 37° C. and in 5% CO2. Cells were then loaded with a fluorescent calcium-sensitive dye in the presence of 0.07% probenecid for an hour at 37° C., according to the manufacturer's protocol (Ca5-Assay Kit, Molecular Devices), followed by an additional 60 min incubation at room temperature. Serial compound dilutions (final concentrations of 10^−10 to 10^−5M, prepared in HBSS+50 mM HEPES) were first added to the cells alone (“first addition” to assess agonism on the 5-HT2B receptor), then after 8 min, serotonin was added to the same wells at a final concentration of 10^−8 M (“second addition” to see potential antagonistic effect) and the maximal calcium response was determined using a FLIPR® Tetra instrument (Molecular Devices) in each of the two steps. The relative efficacy of the compounds was calculated as a percentage of the maximal effect induced by serotonin alone (defined as 100%). To determine EC50/IC50 values, concentration-response curves were fitted using a four-parameter logistic equation (IDBS Biobookml). Kb values were calculated from IC50 values, according to Cheng & Prusoff

COC[C@@H]1C[C@@H]2CNCCN2c2cc(F)cc(C3CC3)c2O1.Cl [Example 49, (4aR,6S)-8-Cyclopropyl-10-fluoro-6-(methoxymethyl)-2,3,4,4a,5,6-hexahydro-1H-pyrazino[2,1-d][1,5]benzoxazepine hydrochloride]
Selectivity over 5-HT2A [1]: ++ (from >30 to 100) | EC50 [2]: < 20 nM | Emax [2]: > 70% | CLint scaled at 0.5 μM ([3]; liver microsomes): < 83.3 mL/min/kg

COC[C@@H]1C[C@@H]2CNCCN2c2cccc(OC(F)F)c2O1 [Example 42, (4aR,6S)-8-(Difluoromethoxy)-6-(methoxymethyl)-2,3,4,4a,5,6-hexahydro-1H-pyrazino[2,1-d][1,5]benzoxazepine]
Selectivity over 5-HT2A [1]: + (from 10 to 30) | EC50 [2]: < 20 nM | Emax [2]: > 70% | CLint scaled at 0.5 μM ([3]; liver microsomes): < 83.3 mL/min/kg

OC[C@@H]1C[C@@H]2CNCCN2c2cc(F)cc(Cl)c2O1 [Example 17, [(4aR,6S)-8-Chloro-10-fluoro-2,3,4,4a,5,6-hexahydro-1H-pyrazino[2,1-d][1,5]benzoxazepin-6-yl]methanol hydrochloride]
EC50 [2]: < 20 nM | Emax [2]: > 70% | CLint scaled at 0.5 μM ([3]; liver microsomes): < 83.3 mL/min/kg

COC[C@H]1C[C@@H]2CNCCN2c2cc(F)cc(C(F)F)c2O1.Cl [Example 32, (4aR,6R)-8-(Difluoromethyl)-10-fluoro-6-(methoxymethyl)-2,3,4,4a,5,6-hexahydro-1H-pyrazino[2,1-d][1,5]benzoxazepine hydrochloride]
Selectivity over 5-HT2A [1]: ++ (from >30 to 100) | EC50 [2]: 200 to 1000 nM | Emax [2]: > 70% | CLint scaled at 0.5 μM ([3]; liver microsomes): < 83.3 mL/min/kg | Selectivity over 5-HT2B [4]: ++ (from >30 to 100)

Cl.OC[C@@H]1C[C@@H]2CNCCN2c2cc(F)cc(C(F)F)c2O1 [Example 23, [(4aR,6S)-8-(Difluoromethyl)-10-fluoro-2,3,4,4a,5,6-hexahydro-1H-pyrazino[2,1-d][1,5]benzoxazepin-6-yl]methanol hydrochloride]
Selectivity over 5-HT2A [1]: + (from 10 to 30) | EC50 [2]: < 20 nM | Emax [2]: > 70% | CLint scaled at 0.5 μM ([3]; liver microsomes): < 83.3 mL/min/kg

COC[C@@H]1C[C@@H]2CNCCN2c2cccc(F)c2O1.Cl [Example 50, (4aR,6S)-8-Fluoro-6-(methoxymethyl)-2,3,4,4a,5,6-hexahydro-1H-pyrazino[2,1-d][1,5]benzoxazepine hydrochloride]
Selectivity over 5-HT2A [1]: ++ (from >30 to 100) | EC50 [2]: 20 to 200 nM | Emax [2]: > 70% | CLint scaled at 0.5 μM ([3]; liver microsomes): < 83.3 mL/min/kg

COC[C@@H]1C[C@@H]2CNCCN2c2cc(F)cc(C)c2O1.Cl [Example 41, (4aR,6S)-10-Fluoro-6-(methoxymethyl)-8-methyl-2,3,4,4a,5,6-hexahydro-1H-pyrazino[2,1-d][1,5]benzoxazepine hydrochloride]
Selectivity over 5-HT2A [1]: +++ (>100) | EC50 [2]: < 20 nM | Emax [2]: > 70% | CLint scaled at 0.5 μM ([3]; liver microsomes): < 83.3 mL/min/kg

Cl.OC[C@@H]1C[C@@H]2CNCCN2c2c(F)c(F)cc(Cl)c2O1 [Example 20, [(4aR,6S)-8-Chloro-10,11-difluoro-2,3,4,4a,5,6-hexahydro-1H-pyrazino[2,1-d][1,5]benzoxazepin-6-yl]methanol hydrochloride]
Selectivity over 5-HT2A [1]: +++ (>100) | EC50 [2]: 20 to 200 nM | Emax [2]: > 70% | CLint scaled at 0.5 μM ([3]; liver microsomes): < 83.3 mL/min/kg

COC[C@@H]1C[C@@H]2CNCCN2c2cc(Cl)cc(F)c2O1 [Example 25, (4aR,6S)-10-Chloro-8-fluoro-6-(methoxymethyl)-2,3,4,4a,5,6-hexahydro-1H-pyrazino[2,1-d][1,5]benzoxazepine]
Selectivity over 5-HT2A [1]: +++ (>100) | EC50 [2]: 20 to 200 nM | Emax [2]: > 70% | CLint scaled at 0.5 μM ([3]; liver microsomes): < 83.3 mL/min/kg

COC[C@@H]1C[C@@H]2CNCCN2c2cc(OC)cc(Cl)c2O1.Cl [Example 44, (4aR,6S)-8-Chloro-10-methoxy-6-(methoxymethyl)-2,3,4,4a,5,6-hexahydro-1H-pyrazino[2,1-d][1,5]benzoxazepine hydrochloride]
EC50 [2]: 20 to 200 nM | Emax [2]: > 70% | CLint scaled at 0.5 μM ([3]; liver microsomes): < 83.3 mL/min/kg | Selectivity over 5-HT2B [4]: ++ (from >30 to 100)

COC[C@@H]1C[C@@H]2CNCCN2c2cccc(C3CC3)c2O1.Cl [Example 48, (4aR,6S)-8-Cyclopropyl-6-(methoxymethyl)-2,3,4,4a,5,6-hexahydro-1H-pyrazino[2,1-d][1,5]benzoxazepine hydrochloride]
Selectivity over 5-HT2A [1]: + (from 10 to 30) | EC50 [2]: < 20 nM | Emax [2]: > 70% | CLint scaled at 0.5 μM ([3]; liver microsomes): < 83.3 mL/min/kg

COC[C@@H]1C[C@@H]2CNCCN2c2nccc(C(F)F)c2O1.O=C(O)C(F)(F)F [Example 27, (6S,7aR)-4-(Difluoromethyl)-6-(methoxymethyl)-7,7a,8,9,10,11-hexahydro-6H-pyrazino[1,2-d]pyrido[3,2-b][1,4]oxazepine; 2,2,2-trifluoroacetic acid]
Selectivity over 5-HT2A [1]: ++ (from >30 to 100) | EC50 [2]: 20 to 200 nM | Emax [2]: > 70% | CLint scaled at 0.5 μM ([3]; microsomes): < 83.3 mL/min/kg

COC[C@@H]1C[C@@H]2CNCCN2c2c(F)c(F)c(F)c(Cl)c2O1.Cl [Example 55, (4aR,6S)-8-Chloro-9,10,11-trifluoro-6-(methoxymethyl)-2,3,4,4a,5,6-hexahydro-1H-pyrazino[2,1-d][1,5]benzoxazepine hydrochloride]
Selectivity over 5-HT2A [1]: +++ (>100) | EC50 [2]: < 20 nM | Emax [2]: > 70% | Selectivity over 5-HT2B [4]: +++ (>100)

Cl.OC[C@@H]1C[C@@H]2CNCCN2c2cccc(Cl)c2O1 [Example 14, [(4aR,6S)-8-Chloro-2,3,4,4a,5,6-hexahydro-1H-pyrazino[2,1-d][1,5]benzoxazepin-6-yl]methanol hydrochloride]
Selectivity over 5-HT2A [1]: +++ (>100) | EC50 [2]: 20 to 200 nM | Emax [2]: > 70% | CLint scaled at 0.5 μM ([3]; microsomes): < 83.3 mL/min/kg
